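Compound exposure: 48 hours, 5 concentrations, 96-well plates. Definition used: TGI = concentration required for complete inhibition of growth.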
system: SK-MEL-28 melanoma; assay: inhibition of tumour cell growth, NCI panel, 48 h

Row | Compound | TGI [µM]
1 | O=c1[nH][nH]c(=O)n1Cc1cccc(Cn2c(=O)[nH][nH]c2=O)c1 | > 100
2 | CC1=C(C(=O)OCc2ccncc2)C(C2=C(C)SCCS2)C(C(=O)OCc2ccncc2)=C(C)N1 | 34
3 | O=C1c2scc(-c3ccccc3)c2-n2cccc21 | 28.8
4 | CCOC(=O)C1(Cc2ccc3c(c2)CCC3)Cc2cc3c(cc2C1=O)CCC3 (centres undefined) | > 100

system: SK-MEL-5 melanoma; assay: inhibition of tumour cell growth, NCI panel, 48 h

Row | Compound | TGI [µM]
5 | c1ccc(NNC2=NCCN2)cc1 | > 100
6 | O=c1[nH][nH]c(=O)n1Cc1cccc(Cn2c(=O)[nH][nH]c2=O)c1 | > 100
7 | CC1=C(C(=O)OCc2ccncc2)C(C2=C(C)SCCS2)C(C(=O)OCc2ccncc2)=C(C)N1 | 28.6
8 | O=C1c2scc(-c3ccccc3)c2-n2cccc21 | 30
9 | CCOC(=O)C1(Cc2ccc3c(c2)CCC3)Cc2cc3c(cc2C1=O)CCC3 (centres undefined) | > 100

system: SK-OV-3 ovarian; assay: inhibition of tumour cell growth, NCI panel, 48 h

Row | Compound | TGI [µM]
10 | c1ccc(NNC2=NCCN2)cc1 | > 100
11 | O=c1[nH][nH]c(=O)n1Cc1cccc(Cn2c(=O)[nH][nH]c2=O)c1 | > 100
12 | CC1=C(C(=O)OCc2ccncc2)C(C2=C(C)SCCS2)C(C(=O)OCc2ccncc2)=C(C)N1 | 88
13 | O=C1c2scc(-c3ccccc3)c2-n2cccc21 | 44.7
14 | CCOC(=O)C1(Cc2ccc3c(c2)CCC3)Cc2cc3c(cc2C1=O)CCC3 (centres undefined) | > 100

system: SN12C renal; assay: inhibition of tumour cell growth, NCI panel, 48 h

Row | Compound | TGI [µM]
15 | c1ccc(NNC2=NCCN2)cc1 | > 100
16 | O=c1[nH][nH]c(=O)n1Cc1cccc(Cn2c(=O)[nH][nH]c2=O)c1 | > 100
17 | CC1=C(C(=O)OCc2ccncc2)C(C2=C(C)SCCS2)C(C(=O)OCc2ccncc2)=C(C)N1 | 70.6
18 | O=C1c2scc(-c3ccccc3)c2-n2cccc21 | 74.8
19 | CCOC(=O)C1(Cc2ccc3c(c2)CCC3)Cc2cc3c(cc2C1=O)CCC3 (centres undefined) | > 100

system: SNB-19 CNS; assay: inhibition of tumour cell growth, NCI panel, 48 h

Row | Compound | TGI [µM]
20 | c1ccc(NNC2=NCCN2)cc1 | > 100
21 | O=c1[nH][nH]c(=O)n1Cc1cccc(Cn2c(=O)[nH][nH]c2=O)c1 | > 100
22 | CC1=C(C(=O)OCc2ccncc2)C(C2=C(C)SCCS2)C(C(=O)OCc2ccncc2)=C(C)N1 | 87.5
23 | O=C1c2scc(-c3ccccc3)c2-n2cccc21 | 42
24 | CCOC(=O)C1(Cc2ccc3c(c2)CCC3)Cc2cc3c(cc2C1=O)CCC3 (centres undefined) | > 100

system: SNB-75 CNS; assay: inhibition of tumour cell growth, NCI panel, 48 h

Row | Compound | TGI [µM]
25 | c1ccc(NNC2=NCCN2)cc1 | > 100
26 | O=c1[nH][nH]c(=O)n1Cc1cccc(Cn2c(=O)[nH][nH]c2=O)c1 | > 100
27 | CC1=C(C(=O)OCc2ccncc2)C(C2=C(C)SCCS2)C(C(=O)OCc2ccncc2)=C(C)N1 | 66.6
28 | O=C1c2scc(-c3ccccc3)c2-n2cccc21 | 27.2
29 | CCOC(=O)C1(Cc2ccc3c(c2)CCC3)Cc2cc3c(cc2C1=O)CCC3 (centres undefined) | > 100

system: SR leukemia; assay: inhibition of tumour cell growth, NCI panel, 48 h

Row | Compound | TGI [µM]
30 | c1ccc(NNC2=NCCN2)cc1 | > 100
31 | O=c1[nH][nH]c(=O)n1Cc1cccc(Cn2c(=O)[nH][nH]c2=O)c1 | > 100
32 | CC1=C(C(=O)OCc2ccncc2)C(C2=C(C)SCCS2)C(C(=O)OCc2ccncc2)=C(C)N1 | > 100
33 | O=C1c2scc(-c3ccccc3)c2-n2cccc21 | 47.2
34 | CCOC(=O)C1(Cc2ccc3c(c2)CCC3)Cc2cc3c(cc2C1=O)CCC3 (centres undefined) | > 100

system: SW-620 colon; assay: inhibition of tumour cell growth, NCI panel, 48 h

Row | Compound | TGI [µM]
35 | c1ccc(NNC2=NCCN2)cc1 | > 100
36 | O=c1[nH][nH]c(=O)n1Cc1cccc(Cn2c(=O)[nH][nH]c2=O)c1 | > 100
37 | CC1=C(C(=O)OCc2ccncc2)C(C2=C(C)SCCS2)C(C(=O)OCc2ccncc2)=C(C)N1 | 64.6
38 | O=C1c2scc(-c3ccccc3)c2-n2cccc21 | 34.1
39 | CCOC(=O)C1(Cc2ccc3c(c2)CCC3)Cc2cc3c(cc2C1=O)CCC3 (centres undefined) | > 100

system: T-47D breast; assay: inhibition of tumour cell growth, NCI panel, 48 h

Row | Compound | TGI [µM]
40 | c1ccc(NNC2=NCCN2)cc1 | > 100
41 | O=c1[nH][nH]c(=O)n1Cc1cccc(Cn2c(=O)[nH][nH]c2=O)c1 | > 100
42 | CC1=C(C(=O)OCc2ccncc2)C(C2=C(C)SCCS2)C(C(=O)OCc2ccncc2)=C(C)N1 | 42.8
43 | O=C1c2scc(-c3ccccc3)c2-n2cccc21 | 80.9
44 | CCOC(=O)C1(Cc2ccc3c(c2)CCC3)Cc2cc3c(cc2C1=O)CCC3 (centres undefined) | > 100

system: TK-10 renal; assay: inhibition of tumour cell growth, NCI panel, 48 h

Row | Compound | TGI [µM]
45 | c1ccc(NNC2=NCCN2)cc1 | > 100
46 | O=c1[nH][nH]c(=O)n1Cc1cccc(Cn2c(=O)[nH][nH]c2=O)c1 | > 100
47 | CC1=C(C(=O)OCc2ccncc2)C(C2=C(C)SCCS2)C(C(=O)OCc2ccncc2)=C(C)N1 | > 100
48 | O=C1c2scc(-c3ccccc3)c2-n2cccc21 | > 100
49 | CCOC(=O)C1(Cc2ccc3c(c2)CCC3)Cc2cc3c(cc2C1=O)CCC3 (centres undefined) | > 100

system: U251 CNS; assay: inhibition of tumour cell growth, NCI panel, 48 h

Row | Compound | TGI [µM]
50 | c1ccc(NNC2=NCCN2)cc1 | > 100
51 | O=c1[nH][nH]c(=O)n1Cc1cccc(Cn2c(=O)[nH][nH]c2=O)c1 | > 100
52 | CC1=C(C(=O)OCc2ccncc2)C(C2=C(C)SCCS2)C(C(=O)OCc2ccncc2)=C(C)N1 | 33.2
53 | O=C1c2scc(-c3ccccc3)c2-n2cccc21 | 27.7
54 | CCOC(=O)C1(Cc2ccc3c(c2)CCC3)Cc2cc3c(cc2C1=O)CCC3 (centres undefined) | > 100

system: UACC-257 melanoma; assay: inhibition of tumour cell growth, NCI panel, 48 h

Row | Compound | TGI [µM]
55 | c1ccc(NNC2=NCCN2)cc1 | > 100
56 | O=c1[nH][nH]c(=O)n1Cc1cccc(Cn2c(=O)[nH][nH]c2=O)c1 | > 100
57 | CC1=C(C(=O)OCc2ccncc2)C(C2=C(C)SCCS2)C(C(=O)OCc2ccncc2)=C(C)N1 | 50.1
58 | O=C1c2scc(-c3ccccc3)c2-n2cccc21 | > 100
59 | CCOC(=O)C1(Cc2ccc3c(c2)CCC3)Cc2cc3c(cc2C1=O)CCC3 (centres undefined) | > 100

system: UACC-62 melanoma; assay: inhibition of tumour cell growth, NCI panel, 48 h

Row | Compound | TGI [µM]
60 | c1ccc(NNC2=NCCN2)cc1 | > 100
61 | O=c1[nH][nH]c(=O)n1Cc1cccc(Cn2c(=O)[nH][nH]c2=O)c1 | > 100
62 | CC1=C(C(=O)OCc2ccncc2)C(C2=C(C)SCCS2)C(C(=O)OCc2ccncc2)=C(C)N1 | 73.6
63 | O=C1c2scc(-c3ccccc3)c2-n2cccc21 | 55.6
64 | CCOC(=O)C1(Cc2ccc3c(c2)CCC3)Cc2cc3c(cc2C1=O)CCC3 (centres undefined) | > 100

system: UO-31 renal; assay: inhibition of tumour cell growth, NCI panel, 48 h

Row | Compound | TGI [µM]
65 | c1ccc(NNC2=NCCN2)cc1 | > 100
66 | O=c1[nH][nH]c(=O)n1Cc1cccc(Cn2c(=O)[nH][nH]c2=O)c1 | > 100
67 | CC1=C(C(=O)OCc2ccncc2)C(C2=C(C)SCCS2)C(C(=O)OCc2ccncc2)=C(C)N1 | 37.9
68 | O=C1c2scc(-c3ccccc3)c2-n2cccc21 | > 100
69 | CCOC(=O)C1(Cc2ccc3c(c2)CCC3)Cc2cc3c(cc2C1=O)CCC3 (centres undefined) | > 100

From PubChem BioAssay (NCI)
